Results from patent publication US8962020B2, “Long-acting and controlled release formulations of 2-[(3-chlorophenyl) amino] phenylacetic acid” (Glycadia Inc., priority 2012, dated 2015).

How the values were obtained:
[1] = Plasma 23CPPA after oral graduated doses of nonformulated 23CPPA to normal men; assay type: in vivo
Description: Plasma concentrations of 23CPPA were measured in samples obtained at timed intervals after oral administration of graduated doses of nonformulated 23CPPA to normal men.

[2] = Pharmacokinetics following oral administration of 23CPPA in rats for fourteen days; assay type: in vivo; details: for Tmax / half-life: rat, plasma
Description: (§1) Rats (Charles River Laboratories) received 23CPPA orally at dosages of 25 and 75 mg per kg per day for fourteen days. Samples were obtained at timed intervals following administration for measurement of plasma concentrations of 23CPPA and pharmacokinetic analysis, and tissue was histopathologically examined at the end termination of the study period.

[3] = pKa (acid dissociation constant); assay type: physicochemical; details: pharmaceutically acceptable salts of 23CPPA such as potassium; read-out: pKa (logarithm of the acid dissociation constant)
[4] = Gastric histopathology following oral administration of 23CPPA in rats for fourteen days; assay type: in vivo
Description: as §1

Plasma 23CPPA (peak concentration) ([1]; relative dose 1): 7 nmol/mL
Plasma 23CPPA (peak concentration) ([1]; relative dose 2): 19 nmol/mL
Plasma 23CPPA (peak concentration) ([1]; relative dose 5): 44 nmol/mL
Plasma 23CPPA (peak concentration) ([1]; relative dose 10): 64 nmol/mL
Plasma 23CPPA (peak concentration) ([1]; relative dose 15): 70 nmol/mL
Plasma 23CPPA (peak concentration) ([1]; relative dose 20): 74 nmol/mL
time of maximum plasma concentration of drug after administration ([2]; 25 and 75 mg per kg per day): 0.25 h
Tmax ([2]; 25 mg/kg/day for fourteen days): 0.25 h
half-life ([2]; 25 mg/kg/day for fourteen days): 2.3 h
Tmax ([2]; 75 mg/kg/day for fourteen days): 0.25 h
half-life ([2]; 75 mg/kg/day for fourteen days): 2.3 h
pKa [3]: 4
Gastric Histopathology: Edema/inflammation ([4]; 25 mg/kg/day for fourteen days): Edema/inflammation (20) % animals
Gastric Histopathology: Edema/inflammation ([4]; 75 mg/kg/day for fourteen days): Edema/inflammation (30) % animals
SMILES: O=C(O)Cc1ccccc1Nc1cccc(Cl)c1 [Granule 23CPPA, 2-[(3-chlorophenyl)amino] phenylacetic acid]
